Assay results taken from US20240327353A1.
Where two headings read alike, the source gives them in different places.

Legend:
5-HT2BR [1] = target: T1, 5-HT2BR (Homo sapiens, UniProt P41595); test: Radioligand binding (competitive displacement and saturation), cell membranes
H1R = target: T2, H1R (Homo sapiens, UniProt P35367); test: as above
T2 construct: host or cells: CHO, transient
Procedure: (§1) Transfections were performed for 48 hours.

5-HT2AR = target: T3, 5-HT2AR (Homo sapiens, UniProt P28223); test: as above; settings: for Ki: pKi 5-HT2AR
T3 construct: host or cells: HEK293, transient
Procedure: as §1

5-HT2CR [2] = target: T4, 5-HT2CR (Homo sapiens, UniProt P28335); test: biochemical
T4 sequence (P28335 33-458): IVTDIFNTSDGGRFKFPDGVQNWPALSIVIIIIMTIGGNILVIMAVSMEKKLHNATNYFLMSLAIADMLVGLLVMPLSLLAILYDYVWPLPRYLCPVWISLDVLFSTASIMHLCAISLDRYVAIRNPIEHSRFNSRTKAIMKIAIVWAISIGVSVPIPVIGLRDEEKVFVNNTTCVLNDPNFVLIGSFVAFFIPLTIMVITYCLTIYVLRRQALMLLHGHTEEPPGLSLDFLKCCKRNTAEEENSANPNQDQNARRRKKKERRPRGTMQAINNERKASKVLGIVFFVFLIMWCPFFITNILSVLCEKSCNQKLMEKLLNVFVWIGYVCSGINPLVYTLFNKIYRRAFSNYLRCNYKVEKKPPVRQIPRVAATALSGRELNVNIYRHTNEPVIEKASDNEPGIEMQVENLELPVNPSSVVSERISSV
Procedure: (§2) All cells were grown adherently in 10 cm plates in a humidified incubator kept at 37° C. and 5% carbon dioxide. […] Transient transfections were used to express 5-HT2A, 5-HT2C, α1A- or α1B-adrenergic receptors, whereas 5-HT7(a)Rs were stably expressed in HEK293 cells. H1Rs were transiently expressed, and D2Rs were stably expressed in CHO cells.
(§3) Transient transfections were performed on cells in the log growth phase (70-90% confluence). […] Each solution was mixed by inversion before combining, mixed by inversion again, and incubated at 37° C. for 30 minutes. Cells were then washed with 1 mL 1×PBS, followed by the gentle addition of 5 mL of transfection cocktail and 5 mL of cell culture medium with 5% (final) dialyzed FBS. Transfections were performed for 48 hours.
(§4) The affinity of ligands was determined via radioligand binding techniques using human recombinant receptors expressed in mammalian clonal cells.
(§5) Saturation binding experiments were performed on membranes expressing 5-HT2A, 5-HT2B, 5-HT2C, or H1Rs in triplicate across 8 concentrations. Competition binding assays were performed in at least triplicate with approximate Kd concentrations of radioligand. Total and nonspecific binding were determined in octet. […] Serial dilutions of unlabeled compound were made in assay buffer at 2.5× the final concentration using 10 mM DMSO stocks (final [DMSO]≤1%). Assays were terminated using rapid filtration via Whatman GF/B Fired Filters (Brandel Inc., Gaithersburg, MD) soaked in 0.3% (w/v) PEI, using an automated Tomtec Harvester 96 (Hamden, CT).
(§6) Filters were washed with 50 mM Tri-HCl (pH=7.4, 4° C.) before being oven dried and placed into scintillation vials containing 1 mL SX18-4 ScintiVerse^TM BD Cocktail (Fisher Chemical, Fair Lawn, NJ).
(§7) GraphPad Prism (La Jolla, CA) version 9.1.1 was used to analyze all experimental data in this work. To analyze data from saturation binding studies, the radioligand counts per minute (cpm) were normalized to fmol/mg protein bound and then fit the data to a ‘specific binding with hill slope’ model. For competitive radioligand displacement studies, a baseline correction was performed by subtracting the mean nonspecific binding value from the radioligand binding values with and without competitor to obtain specific binding values. Specific binding values were then normalized such that total binding in the absence of competitor represented 100% radioligand binding, and the radioactivity associated with each concentration of competitor was a percentage of total binding. The normalized data was then fit to the ‘one-site Fit Ki’ nonlinear regression model.

5-HT2BR [3] = target: T1, 5-HT2BR; test: biochemical
Procedure: as §2, §3, §4, §5, §6, §7

5-HT2CR [4] = target: T4, 5-HT2CR; test: Radioligand binding (competitive displacement and saturation), cell membranes
Procedure: as §2, §3, §4, §5, §6, §7

human wild-type 5-HT2C = human wild-type 5-HT2C (Homo sapiens, UniProt P28335); test: IP-One HTRF IP1 accumulation assay
Procedure: as §3
The pharmacological parameters (e.g., pEC50, pKb, pIC50, Imax) of agonist and antagonist-mediated signal transduction through Gaq-coupled 5-HT2A, 5-HT2B, 5-HT2C, and H1Rs was quantified using the Cisbio (Bedford, MA) IP-One homogeneous time resolved fluorescence (HTRF) immunoassay. The protocol used was consistent with that recommended by the manufacturer for suspension cells in 384-well plate format, with minor modifications. […] Cells (˜2,000 cells/μL, >90% viability, determined by the Corning® Cell Counter) were resuspended in the manufacturer's stimulation buffer (pH=7.4, 37° C.) modified to include 0.1% bovine serum albumin stabilizer (PerkinElmer, part #: CR84-100) and added to a white 384-well OptiPlate (PerkinElmer). Next, stimulation buffer, or 2× compound diluted in stimulation buffer, was added to each well. […] Cells were then incubated in the dark for two hours at 37° C. to ensure equilibrium was obtained. Plates were covered with an aluminum foil seal to prevent evaporation.
Following incubation, the manufacturer's lysis solution (detection buffer) containing inositol monophosphate (IP1) covalently bound to a fluorescent acceptor dye (d2) was added to each well. This process generated a homogenous mixture of cellular and d2-labeled IP1, in a ratio dependent on the concentration- and activity-dependent efficacy of test ligands to modulate cellular IP1 levels. Next, detection buffer containing an anti-IP1 antibody covalently bound to a terbium-cryptate, which serves as a fluorescent acceptor, was added to each well. A one-hour incubation at room temperature was used to allow competitive interactions between cellular and d2-labeled IP1 to equilibrate with anti-IP1-cryptate. Time-resolved fluorescent resonance energy transfer (TR-FRET) was then quantified by a Synergy H1 plate reader equipped with a HTRF filter cube (BioTek).
The functional activity of each compound was determined by incubating cells expressing recombinant receptors with or without a compound of interest in parallel with well containing only buffer and 8 known concentrations of IP1 to generate a standard curve for each experiment. The IP1 concentration in cell-containing wells was then interpolated using nonlinear regression and the ‘log(inhibitor) vs. response (three parameters)’ model in Prism. To control for variation between assays, the resulting concentrations were transformed into molar units and change from basal was calculated using the following equation (Equation 1), where B is the basal concentration of IP, and Y is the concentration of IP generated by cells incubated with compound.
The same model was used to calculate the IC50 of inverse agonists in the absence of A. In contrast, the EC50 was derived from a log([agonist]) vs. response-variable slope (four parameters)’ model to simultaneously obtain K. Each Kb, IC50, and EC50 value was logarithmically transformed into the pKb, pIC50, and pEC50, respectively for ease of presentation and statistical analyses.

D231F^5.35 5-HT2AR = D231F^5.35 5-HT2AR (Homo sapiens, UniProt P28223, D231F); test: Exploratory saturation radioligand binding at point-mutated 5-HT2AR; settings: membranes of transfected HEK293 cells (FIGS. 14A-14D)
Procedure: as §5
Site directed mutagenesis experiments were performed using 5′-phosphorylated, PAGE-purified custom primers (Life Technologies, Carlsbad CA) and the Quikchange Site-Directed Mutagenesis kit (Agilent, Santa Clara CA) according to the manufacturer's protocol. Reactions were performed in thin-walled PCR tubes using a TOne Gradient 96 Thermal Cycler (Biometra). Following Dpn1 digestion, 2 μL of the PCR product mixture was transformed into 50 μL XL1-Blue competent cells using a 45 second pulse of heat in a 42° C. water bath. The transformed bacteria were then incubated for 1 hour at 37° C. in 0.5 mL of LB broth before being plated on LB-agar plates and incubated overnight at 37° C. […]

5-HT2CR [5] = target: T4, 5-HT2CR
Procedure: as §2, §3, §4, §5, §6, §7

5-HT2BR [6] = target: T1, 5-HT2BR
Procedure: as §2, §3, §4, §5, §6, §7

[7] = displacement of [^3H]ketanserin, mean of n independent experiments, ± SD where n ≥ 5

T1 sequence (P41595 whole entry): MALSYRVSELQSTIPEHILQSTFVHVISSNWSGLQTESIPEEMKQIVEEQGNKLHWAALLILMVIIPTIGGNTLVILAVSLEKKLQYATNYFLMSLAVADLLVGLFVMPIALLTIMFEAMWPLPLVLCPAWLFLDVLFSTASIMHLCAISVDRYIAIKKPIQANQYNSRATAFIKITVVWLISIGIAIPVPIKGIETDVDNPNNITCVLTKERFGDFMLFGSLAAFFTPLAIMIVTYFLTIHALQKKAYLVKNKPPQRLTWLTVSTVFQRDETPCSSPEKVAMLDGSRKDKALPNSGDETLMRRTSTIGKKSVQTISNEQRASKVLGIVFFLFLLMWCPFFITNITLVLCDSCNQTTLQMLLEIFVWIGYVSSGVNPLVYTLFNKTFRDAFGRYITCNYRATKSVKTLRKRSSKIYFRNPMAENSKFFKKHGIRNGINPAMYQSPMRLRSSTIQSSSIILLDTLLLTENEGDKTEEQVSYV
T2 sequence (P35367 whole entry): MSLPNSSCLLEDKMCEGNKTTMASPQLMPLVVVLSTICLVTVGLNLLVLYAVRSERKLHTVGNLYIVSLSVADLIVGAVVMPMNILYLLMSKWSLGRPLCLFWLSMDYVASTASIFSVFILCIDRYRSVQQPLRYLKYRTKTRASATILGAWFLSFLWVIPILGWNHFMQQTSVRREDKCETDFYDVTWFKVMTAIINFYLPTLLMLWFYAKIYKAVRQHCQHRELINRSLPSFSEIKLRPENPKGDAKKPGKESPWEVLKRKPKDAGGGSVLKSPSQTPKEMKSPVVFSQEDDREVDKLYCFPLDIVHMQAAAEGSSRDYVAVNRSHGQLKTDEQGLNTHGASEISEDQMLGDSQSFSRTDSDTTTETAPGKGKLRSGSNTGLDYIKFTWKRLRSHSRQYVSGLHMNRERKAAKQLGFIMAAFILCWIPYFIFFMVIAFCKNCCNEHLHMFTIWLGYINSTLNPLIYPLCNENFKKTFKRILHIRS
T3 sequence (P28223 whole entry): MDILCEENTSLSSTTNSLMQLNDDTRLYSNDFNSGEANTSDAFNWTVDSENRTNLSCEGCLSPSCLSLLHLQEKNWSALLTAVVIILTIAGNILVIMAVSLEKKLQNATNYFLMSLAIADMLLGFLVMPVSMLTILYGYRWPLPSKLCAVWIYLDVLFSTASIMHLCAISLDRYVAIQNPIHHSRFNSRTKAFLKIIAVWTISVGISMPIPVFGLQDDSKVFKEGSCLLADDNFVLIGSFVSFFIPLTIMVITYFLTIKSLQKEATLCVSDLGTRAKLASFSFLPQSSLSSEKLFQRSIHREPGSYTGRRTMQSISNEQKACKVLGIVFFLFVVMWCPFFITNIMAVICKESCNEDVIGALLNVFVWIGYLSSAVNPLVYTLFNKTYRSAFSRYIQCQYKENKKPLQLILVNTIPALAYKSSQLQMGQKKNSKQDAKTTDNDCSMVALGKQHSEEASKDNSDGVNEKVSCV
Chain of D231F^5.35 5-HT2AR (P28223 whole entry D231F): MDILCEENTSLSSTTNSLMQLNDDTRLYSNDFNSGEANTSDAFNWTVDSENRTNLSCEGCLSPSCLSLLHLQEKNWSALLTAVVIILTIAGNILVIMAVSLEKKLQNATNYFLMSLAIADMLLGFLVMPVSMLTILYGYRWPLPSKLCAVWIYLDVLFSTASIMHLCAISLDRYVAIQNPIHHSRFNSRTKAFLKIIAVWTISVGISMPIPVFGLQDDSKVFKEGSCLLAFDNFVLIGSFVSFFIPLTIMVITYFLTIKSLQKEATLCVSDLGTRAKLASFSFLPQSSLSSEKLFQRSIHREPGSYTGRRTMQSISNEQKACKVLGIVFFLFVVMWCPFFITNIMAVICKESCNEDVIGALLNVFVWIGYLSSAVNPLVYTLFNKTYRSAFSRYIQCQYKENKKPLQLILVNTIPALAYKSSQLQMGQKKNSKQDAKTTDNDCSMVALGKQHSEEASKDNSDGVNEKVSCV

CN(C)[C@@H]1Cc2ccccc2[C@H](c2cccc(-c3ccccc3F)c2)C1 (single isomer, unassigned) [(2R,4R)-3g, Cis-4-(2′-fluoro-[1,1′-biphenyl]-3-yl)-N,N-dimethyl-1,2,3,4-tetrahydronaphthalen-2-amine]
pKi 5-HT2BR (5-HT2BR [1]): 7.36^(2) 7.36-7.35 7.09^(3) 7.23-6.90 6.53^(3) 6.71-6.30 6.33^(2) 6.49-6.17 | pKi H1R (H1R): 6.93^(2) 7.02-6.84 8.75^(4) 9.1-8.62 ND 6.54^(2) 6.67-6.40 | Ki (5-HT2AR; [7]): 2.04 nM

CN(C)c1ccc(-c2cccc([C@@H]3C[C@H](N(C)C)Cc4ccccc43)c2)cc1 (single isomer, unassigned) [(2S,4S)-3k, Cis-4-(4′-(dimethylamino)-[1,1′-biphenyl]-3-yl)-N,N-dimethyl-1,2,3,4-tetrahydro-naphthalen-2-amine]
pKi 5-HT2BR (5-HT2BR [1]): 5.52^(2) 5.68-5.37 7.10 ± 0.21^(5) 7.40-6.82 5.97^(2) 6.08-5.87 5.97^(2) 6.09-5.86

CN(C)[C@@H]1Cc2ccccc2[C@H](c2cccc(-c3cccs3)c2)C1 (single isomer, unassigned) [(2R,4R)-3c, Cis-4-(3-(thiophen-2-yl)phenyl)-N,N-dimethyl-1,2,3,4-tetrahydronaphthalen-2-amine]
Ki (5-HT2CR [2]): 24 nM | Ki (5-HT2BR [3]): 105 nM | Ki (H1R; read-out: pKi H1R (converted)): 234 nM | selectivity for 5-HT2ARs over 5-HT2B and H1Rs (5-HT2AR; one figure for both off-targets): 30-60 fold | Ki (5-HT2AR): 3.55 nM

CN(C)[C@@H]1Cc2ccccc2[C@@H](c2cccc(-c3cccs3)c2)C1 (single isomer, unassigned) [(2S,4R)-2c, Trans-4-(3-(thiophen-2-yl)phenyl)-N,N-dimethyl-1,2,3,4-tetrahydronaphthalen-2-amine]
Ki (5-HT2CR [2]): 3.8 nM | Ki (5-HT2BR [3]): 79.4 nM | Ki (H1R; read-out: pKi H1R (converted)): 1.15 nM | Ki (5-HT2AR): 2.14 nM | Ki (5-HT2CR [4]; pKi at the 5-HT2CR, single experiment excluded from the reported data, excluded: excessive or incomplete radioligand displacement): 0.832 nM | IC50 (human wild-type 5-HT2C): 251 nM | inverse agonist efficacy (Imax) at 5-HT2CRs (human wild-type 5-HT2C; below basal): 58%

CN(C)[C@@H]1Cc2ccccc2[C@H](c2cccc(Br)c2)C1 (single isomer, unassigned) [(2R,4R)-3a, Cis-4-(3-bromophenyl)-N, N-dimethyl-1,2,3,4-tetrahydronaphthalen-2-amine]
Ki (5-HT2CR [2]): 57.5 nM | Ki (5-HT2BR [3]): 85.1 nM | Ki (5-HT2AR; [7]): 31.6 nM

CN(C)[C@@H]1Cc2ccccc2[C@H](c2cccc(-c3ccccc3F)c2)C1 (single isomer, unassigned) [(2S,4S)-3g, Cis-4-(2′-fluoro-[1,1′-biphenyl]-3-yl)-N,N-dimethyl-1,2,3,4-tetrahydronaphthalen-2-amine]
pKi 5-HT2BR (5-HT2BR [1]): 7.36^(2) 7.36-7.35 7.09^(3) 7.23-6.90 6.53^(3) 6.71-6.30 6.33^(2) 6.49-6.17 | Ki (5-HT2AR; [7]): 40.7 nM

CN(C)[C@@H]1Cc2ccccc2[C@H](c2cccc(-c3ccccc3)c2)C1 (single isomer, unassigned) [(2R,4R)-3f, Cis-4-([1,1′-biphenyl]-3-yl)-N,N-dimethyl-1,2,3,4-tetrahydronaphthalen-2-amine]
Ki (5-HT2CR [2]): 26.9 nM | Ki (5-HT2BR [3]): 117 nM

CN(C)[C@@H]1Cc2ccccc2[C@@H](c2cccc(-c3ccncc3)c2)C1 (single isomer, unassigned) [(2R,4S)-2e, Trans-4-(3-(pyridin-4-yl)phenyl)-N,N-dimethyl-1,2,3,4-tetrahydronaphthalen-2-amine]
pKi 5-HT2AR (5-HT2AR): 6.06^(2) 6.14-5.98 8.13^(3) 8.51-7.82 5.81^(2) 6.01-5.62 7.36^(2) 7.48-7.24 | pKi 5-HT2CR (5-HT2CR [4]): 5.90^(2) 5.99-5.80 7.37^(3) 7.44-7.27 5.61^(2) 5.69-5.54 6.26^(2) 6.42-6.10

CN(C)[C@@H]1Cc2ccccc2[C@H](c2cccc(-c3ccncc3)c2)C1 (single isomer, unassigned) [(2R,4R)-3e, Cis-4-(3-(pyridin-4-yl)phenyl)-N,N-dimethyl-1,2,3,4-tetrahydronaphthalen-2-amine]
Ki (H1R; pKi H1R, displacement of [^3H]mepyramine, mean of n independent experiments, ± SD where n ≥ 5): 22.4 nM | Ki (5-HT2AR; [7]): 43.7 nM | pKi 5-HT2CR (5-HT2CR [4]): 5.90^(2) 5.99-5.80 7.37^(3) 7.44-7.27 5.61^(2) 5.69-5.54 6.26^(2) 6.42-6.10

CN(C)[C@@H]1Cc2ccccc2[C@H](c2cccc(Br)c2)C1 (single isomer, unassigned) [(2S,4S)-3a, Cis-4-(3-bromophenyl)-N, N-dimethyl-1,2,3,4-tetrahydronaphthalen-2-amine]
Ki (5-HT2BR [3]): 389 nM | pKi 5-HT2AR (5-HT2AR): 6.40^(2) 6.41-6.40 7.50^(3) 7.74-7.33 | pKi 5-HT2CR (5-HT2CR [4]): 6.71^(3) 6.93-6.47 7.24^(4) 7.44-7.06

CN(C)[C@@H]1Cc2ccccc2[C@H](c2cccc(-c3ccc(Cl)cc3)c2)C1 (single isomer, unassigned) [(2R,4R)-3j, Cis-4-(4′-chloro-[1,1′-biphenyl]-3-yl)-N,N-dimethyl-1,2,3,4-tetrahydronaphthalen-2-amine]
Ki (5-HT2CR [2]): 9.33 nM | pKi H1R (H1R): 7.84^(2) 7.89-7.78 8.84^(3) 8.86-8.82 ND 6.40^(3) 6.41-6.40 | Ki (5-HT2AR; [7]): 1.7 nM

CN(C)c1ccc(-c2cccc(C3CC(N(C)C)Cc4ccccc43)c2)cc1 [(2R,4S)-2k, Trans-4-(4′-(dimethylamino)-[1,1′-biphenyl]-3-yl)-N,N-dimethyl-1,2,3,4-tetra-hydronaph-thalen-2-amine]
pKi 5-HT2BR (5-HT2BR [1]): 5.52^(2) 5.68-5.37 7.10 ± 0.21^(5) 7.40-6.82 5.97^(2) 6.08-5.87 5.97^(2) 6.09-5.86

O=C(CCCN1CCC2(CC1)C(=O)NCN2c1ccccc1)c1ccc(F)cc1 [[^3H]Spiperone]
specific binding to D231F^5.35 5-HT2ARs (D231F^5.35 5-HT2AR): no specific binding is detected

CN(C)[C@@H]1Cc2ccccc2[C@@H](c2cccc(-c3ccccc3)c2)C1 (single isomer, unassigned) [(2S,4R)-2f, Trans-4-([1,1′-biphenyl]-3-yl)-N,N-dimethyl-1,2,3,4-tetrahydronaphthalen-2-amine]
Ki (5-HT2CR [2]): 3.31 nM | Ki (5-HT2BR [3]): 52.5 nM

CN(C)[C@@H]1Cc2ccccc2[C@H](c2cccc(-c3ccncc3)c2)C1 (single isomer, unassigned) [(2S,4S)-3e, Cis-4-(3-(pyridin-4-yl)phenyl)-N,N-dimethyl-1,2,3,4-tetrahydronaphthalen-2-amine]
pKi 5-HT2AR (5-HT2AR): 6.06^(2) 6.14-5.98 8.13^(3) 8.51-7.82 5.81^(2) 6.01-5.62 7.36^(2) 7.48-7.24 | pKi 5-HT2CR (5-HT2CR [4]): 5.90^(2) 5.99-5.80 7.37^(3) 7.44-7.27 5.61^(2) 5.69-5.54 6.26^(2) 6.42-6.10

CN(C)c1ccc(-c2cccc([C@@H]3C[C@H](N(C)C)Cc4ccccc43)c2)cc1 (single isomer, unassigned) [(2R,4R)-3k, Cis-4-(4′-(dimethylamino)-[1,1′-biphenyl]-3-yl)-N,N-dimethyl-1,2,3,4-tetrahydro-naphthalen-2-amine]
pKi 5-HT2BR (5-HT2BR [1]): 5.52^(2) 5.68-5.37 7.10 ± 0.21^(5) 7.40-6.82 5.97^(2) 6.08-5.87 5.97^(2) 6.09-5.86

CN(C)[C@@H]1Cc2ccccc2[C@H](c2cccc(F)c2)C1 (single isomer, unassigned) [(2R,4R)-3b′, Cis-4-(3-fluorophenyl)-N, N-dimethyl-1,2,3,4-tetrahydronaphthalen-2-amine]
Ki (5-HT2CR [2]): 251 nM | Ki (5-HT2BR [3]): 447 nM

CN(C)[C@H]1Cc2ccccc2[C@H](c2cccc(-c3cccs3)c2)C1 [(2R,4S)-2c, (2R,4S)-trans-4-(3-(thiophen-2-yl)phenyl)-N,N-dimethyl-1,2,3,4-tetrahydronaphthalen-2-amine]
Ki (5-HT2CR [5]): 33.1 nM | pKi H1R (H1R): 6.90 | Ki (5-HT2AR): 19.5 nM | Ki (5-HT2BR [6]): 214 nM | agonist activity at 5-HT2CRs, concentration-response (human wild-type 5-HT2C; FIG. 7B): no consistent effect on IP1-accumulation

CN(C)[C@@H]1Cc2ccccc2[C@H](c2cccc(-c3ccccc3)c2)C1 [(2S,4S)-3f, (2S,4S)-cis-4-([1,1′-biphenyl]-3-yl)-N,N-dimethyl-1,2,3,4-tetrahydronaphthalen-2-amine]
Ki (5-HT2CR [5]): 151 nM | Ki (5-HT2BR [6]): 407 nM

CN(C)[C@@H]1Cc2ccccc2[C@H](c2cccc(-c3cccs3)c2)C1 (single isomer, unassigned) [(2S,4S)-3c, Cis-4-(3-(thiophen-2-yl)phenyl)-N,N-dimethyl-1,2,3,4-tetrahydronaphthalen-2-amine]
Ki (5-HT2CR [2]): 224 nM | Ki (5-HT2BR [3]): 89.1 nM | Ki (H1R; read-out: pKi H1R (converted)): 437 nM | Ki (5-HT2AR): 151 nM

CN(C)[C@@H]1Cc2ccccc2[C@H](c2cccc(F)c2)C1 (single isomer, unassigned) [(2S,4S)-3b′, Cis-4-(3-fluorophenyl)-N, N-dimethyl-1,2,3,4-tetrahydronaphthalen-2-amine]
Ki (5-HT2CR [2]): 437 nM | Ki (5-HT2BR [3]): 912 nM

CN(C)[C@@H]1Cc2ccccc2[C@@H](c2cccc(-c3ccccc3)c2)C1 (single isomer, unassigned) [(2R,4S)-2f, Trans-4-([1,1′-biphenyl]-3-yl)-N,N-dimethyl-1,2,3,4-tetrahydronaphthalen-2-amine]
Ki (5-HT2CR [2]): 69.2 nM | Ki (5-HT2BR [3]): 112 nM
